Tested on: lashes and adjacent hairs of patients
Experiment: Clinical observation of eyelash/hair growth in glaucoma patients treated in one eye
Type: in vivo
Conditions: glaucoma patients treated in one eye only
From the text: In the course of treating patients having glaucoma, treatment may only be appropriate in one eye. […] The lash appearance on the lids of the treated eyes would have appeared quite attractive if it represented a bilateral phenomenon. As a result of its asymmetric nature, the long lashes on one side could be construed as disturbing from a cosmetic standpoint. A systemic examination was preformed as a result of the asymmetric phenomenon. It soon became apparent that this altered appearance was not an isolated finding. […] Definite differences could be identified to varying degrees in the lashes and adjacent hairs of all patients who were taking the drug on a unilateral basis for longer than 6 months.
The changes in the lashes were apparent on gross inspection in several patients once attention was focused on the issue. In those with light colored hair and lashes, the differences were only seen easily with the aid of the high magnification and lighting capabilities of the slit lamp biomicroscope. In the course of glaucoma follow-up examination, attention is generally immediately focused on the eye itself. As a result of the high power magnification needed only one eye is seen at a time and the eye is seen at a high enough power that the lashes are not in focus. […]

With `CCNC(=O)CCC/C=C\C[C@@H]1[C@@H](/C=C/[C@@H](O)CCc2ccccc2)[C@H](O)C[C@@H]1O` [bimatoprost] the “lash appearance in treated eye versus non-treated eye” value was “longer, thicker, and fuller”.

— patent US7964595B2, “Thiophenyl prostaglandin derivatives for treating glaucoma and ocular hypertension” (Allergan, Inc., priority 2008, dated 2011)
